Assay results as given in US11266643B2, “Triaryl compounds for treatment of PD-L1 diseases” (CHEMOCENTRYX, INC., priority 2019, dated 2022).
pIC50: −log10 of the molar value.

Biological target: human PD-L1 (Homo sapiens (Human), UniProt Q9NZQ7)
Assay: Enzyme-Linked Immunosorbent Assay (ELISA), PD-1/PD-L1 binding
Conditions: PD-1/PD-L1 ELISA, human PD-L1 coated plates, Table 1
Method in brief: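 Plates coated with […] human PD-L1 overnight at 4° C, blocked, then 1:5 serial compound dilutions added with human PD-1 […] 0.31 μg/mL for 1 h at 37° C. Bound PD-1 detected with streptavidin-HRP and TMB (20 min, 37° C); absorbance read at 450 nm after H2SO4 stop.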

human PD-L1, sequence (Q9NZQ7 19-239): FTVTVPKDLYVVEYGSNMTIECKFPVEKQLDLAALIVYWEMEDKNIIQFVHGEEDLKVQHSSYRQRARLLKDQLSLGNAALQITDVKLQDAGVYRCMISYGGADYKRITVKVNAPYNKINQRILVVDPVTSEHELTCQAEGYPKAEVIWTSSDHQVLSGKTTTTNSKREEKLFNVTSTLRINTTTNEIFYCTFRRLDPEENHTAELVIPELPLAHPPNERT

pIC50, > 8.00:
COc1cc(-c2cccc(-c3cccc(NC(=O)c4cncn(C)c4=O)c3C)c2C)cc(F)c1CNC1CCCC1 [Example 1.198]
COc1cc(-c2cccc(-c3cccc(NC(=O)c4cncn(C)c4=O)c3C)c2C)cc(F)c1CN[C@@H]1CCC[C@@H]1O [Example 1.199]
COc1cc(-c2cccc(-c3cccc(Nc4nccc5nccnc45)c3C)c2C)cc(F)c1CNC[C@@H]1CCC(=O)N1 [Example 1.200]
COc1cc(-c2cccc(-c3cccc(NC(=O)c4c[nH]c(=O)n(C)c4=O)c3C)c2C)cc(F)c1CNC[C@@H]1CCC(=O)N1 [Example 1.201]
COc1cc(-c2cccc(-c3cccc(NC(=O)c4cncn(C)c4=O)c3C)c2C)cc(F)c1CNC1CCC1 [Example 1.202]
COc1cc(-c2cccc(-c3cccc(NC(=O)c4cncn(C)c4=O)c3C)c2C)cc(F)c1CNC[C@@H](C)O [Example 1.203]
COc1cc(-c2cccc(-c3cccc(NC(=O)c4cncn(C)c4=O)c3C)c2C)cc(F)c1CN[C@H](C)CO [Example 1.204]
COc1cc(-c2cccc(-c3cccc(NC(=O)c4cncn(C)c4=O)c3C)c2C)cc(F)c1CNCC(C)(C)O [Example 1.205]
COc1cc(-c2cccc(-c3cccc(Nc4nccc5nccnc45)c3C)c2C)cc(F)c1CN[C@@H]1CNC(=O)C1 [Example 1.206]
COc1cc(-c2cccc(-c3cccc(Nc4nccc5nccnc45)c3C)c2C)cc(F)c1CN[C@H](C)CO [Example 1.207]
COc1cc(-c2cccc(-c3cccc(Nc4nccc5nccnc45)c3C)c2C)cc(F)c1CNC[C@@H](C)O [Example 1.208]
COc1cc(-c2cccc(-c3cccc(NC(=O)c4cncn(C)c4=O)c3C)c2C)cc(F)c1CN[C@@H]1CNC(=O)C1 [Example 1.209]
COc1cc(-c2cccc(-c3cccc(NC(=O)C4=CNCN(C)C4=O)c3C)c2C)cc(F)c1CNCCO [Example 1.210]
COc1cc(-c2cccc(-c3cccc(NC(=O)c4cncn(C)c4=O)c3C)c2C)cc(F)c1CNC[C@@H]1CCC(=O)N1 [Example 1.211]
COc1cc(-c2cccc(-c3cccc(Nc4nccc5nccnc45)c3C)c2C)cc(F)c1CNC1CCOC1 (stereo not shown) [Example 1.213]
COc1cc(-c2cccc(-c3cccc(NC(=O)c4c[nH]c(=O)n(C)c4=O)c3C)c2C)cc(F)c1CNCC1(O)CC1 [Example 1.214]
COc1cc(-c2cccc(-c3cccc(NC(=O)c4c[nH]c(=O)n(C)c4=O)c3C)c2C)cc(F)c1CN[C@@H]1CCCC[C@@H]1O [Example 1.217]
COc1cc(-c2cccc(-c3cccc(NC(=O)c4c[nH]c(=O)n(C)c4=O)c3C)c2C)cc(F)c1CN[C@@H]1CCC[C@@H]1O [Example 1.218]
COc1cc(-c2cccc(-c3cccc(NC(=O)c4c[nH]c(=O)n(C)c4=O)c3C)c2C)cc(F)c1CN(C)CCO [Example 1.220]
COc1cc(-c2cccc(-c3cccc(NC(=O)c4cncn(C)c4=O)c3C)c2C)cc(F)c1CNCCO [Example 1.221]
COc1cc(-c2cccc(-c3cccc(NC(=O)c4c[nH]c(=O)n(C)c4=O)c3C)c2C)cc(F)c1CNC[C@@H](C)O [Example 1.222]
COc1cc(-c2cccc(-c3cccc(NC(=O)c4c[nH]c(=O)n(C)c4=O)c3C)c2C)cc(F)c1CNC[C@H](C)O [Example 1.223]
COc1cc(-c2cccc(-c3cccc(NC(=O)c4c[nH]c(=O)n(C)c4=O)c3C)c2C)cc(F)c1CNC1CCOC1 (stereo not shown) [Example 1.224]
COc1cc(-c2cccc(-c3cccc(NC(=O)c4c[nH]c(=O)n(C)c4=O)c3C)c2C)cc(F)c1CN[C@H](C)CO [Example 1.225]

pIC50, 6.00 to 8.00:
COc1cc(-c2cccc(-c3cccc(NC(=O)c4c[nH]c(=O)n(C)c4=O)c3C)c2C)cc(F)c1CNC1CNC1 [Example 1.212]
COc1cc(-c2cccc(-c3cccc(Nc4nccc5c4C(=O)N(C)CC5)c3C)c2C)cc(F)c1CNCCO [Example 1.215]
COc1cc(-c2cccc(-c3cccc(NC(=O)c4c[nH]c(=O)n(C)c4=O)c3C)c2C)cc(F)c1CNC1COC1 [Example 1.216]
COc1cc(-c2cccc(-c3cccc(Nc4nccc5c4C(=O)N(C)CC5)c3C)c2C)cc(F)c1CN1CC(C(=O)OC(C)C)C1 [Example 1.219]

Same assay, conditions: human PD-1/PD-L1 ELISA, plates coated with human PD-L1

pIC50, > 8.00:
COc1cc(-c2cccc(-c3cccc(Nc4nccc5nccnc45)c3C)c2C)cc(F)c1CN[C@@H]1CCC[C@@H]1O [Example 1.180]
COc1cc(-c2cccc(-c3cccc(Nc4nccc5nccnc45)c3C)c2C)cc(F)c1CNC(C)C [Example 1.181]
COc1cc(-c2cccc(-c3cccc(NC(=O)c4cncn(C)c4=O)c3C)c2C)cc(F)c1CNC[C@H]1CCC(=O)N1 [Example 1.186]
COc1cc(-c2cccc(-c3cccc(NC(=O)c4cn(C)c(=O)n(C)c4=O)c3C)c2C)cc(F)c1CNC[C@@H]1CCC(=O)N1 [Example 1.187]
COc1cc(-c2cccc(-c3cccc(NC(=O)c4cn(C)c(=O)n(C)c4=O)c3C)c2C)cc(F)c1CN[C@@H]1CNC(=O)C1 [Example 1.188]
CC[C@@H](O)NCc1c(F)cc(-c2cccc(-c3cccc(Nc4nccc5c4C(=O)N(C)CC5)c3C)c2C)cc1OC [Example 1.190]
COc1cc(-c2cccc(-c3cccc(Nc4nccc5c4C(=O)N(C)CC5)c3C)c2C)cc(F)c1CN[C@@H]1CCC[C@@H]1O [Example 1.191]
COc1cc(-c2cccc(-c3cccc(Nc4nccc5c4C(=O)N(C)CC5)c3C)c2C)cc(F)c1CNC[C@@H]1CCC(=O)N1 [Example 1.193]
COc1cc(-c2cccc(-c3cccc(NC(=O)c4cncn(C)c4=O)c3C)c2C)cc(F)c1CNC[C@@H]1CCC(=O)N1C [Example 1.195]
COc1cc(-c2cccc(-c3cccc(NC(=O)c4cncn(C)c4=O)c3C)c2C)cc(F)c1CNC1COC1 [Example 1.197]

pIC50, 6.00 to 8.00:
COc1cc(-c2cccc(-c3cccc(Nc4nccc5c4C(=O)N(C)CC5)c3C)c2C)cc(F)c1CNC(C)C [Example 1.184]
COc1cc(-c2cccc(-c3cccc(Nc4nccc5c4C(=O)N(C)CC5)c3C)c2C)cc(F)c1CNC[C@@H](C)O [Example 1.185]
COc1cc(-c2cccc(-c3cccc(NC(=O)c4cncn(C)c4=O)c3C)c2C)cc(F)c1CN(C)C[C@@H]1CCC(=O)N1C [Example 1.189]
COc1cc(-c2cccc(-c3cccc(Nc4nccc5c4C(=O)N(C)CC5)c3C)c2C)cc(F)c1CN(C)C[C@@H]1CCC(=O)N1 [Example 1.192]
COc1cc(-c2cccc(-c3cccc(NC(=O)C4=CNCN(C)C4=O)c3C)c2C)cc(F)c1CNC[C@@H]1CCC(=O)N1C [Example 1.194]
COc1cc(-c2cccc(-c3cccc(Nc4nccc5c4C(=O)N(C)CC5)c3C)c2C)cc(F)c1CN[C@@H]1CNC(=O)C1 [Example 1.196]

pIC50, 5.00 to 6.00:
COc1cc(-c2cccc(-c3cccc(NC(=O)c4cncn(C)c4=O)c3C)c2C)cc(F)c1CN1CCNC(=O)C1 [Example 1.182]
COc1cc(-c2cccc(-c3cccc(NC(=O)c4c[nH]c(=O)n(C)c4=O)c3C)c2C)cc(F)c1CN1CCNC(=O)C1 [Example 1.183]
